# From ChEMBL document CHEMBL1201862, “PubChem BioAssay data set” (2004)
#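 Method: 48-hour compound exposure of cells in 96-well plates, five concentrations, linear interpolation of endpoints. The concentration for 50% growth inhibition is given as GI50.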 Calls of active or inactive are those of the source. Rule as the data show it: active = GI50 up to about 1.1 µM and inactive = higher.
# Columns and labels:
# Test in all cases: growth of human tumour cells (NCI), 48 h
# CAKI-1 = test system: CAKI-1
# DMS-114 = test system: DMS-114
# EKVX = test system: EKVX
# HCC 2998 = test system: HCC 2998
# K562 = test system: K562
# KM-20L2 = test system: KM-20L2
# LXFL 529 = test system: LXFL 529
# MCF7 = test system: MCF7
# MDA-MB-231 = test system: MDA-MB-231
# MDA-N = test system: MDA-N
# NCI-H460 = test system: NCI-H460
# NCI/ADR-RES = test system: NCI/ADR-RES
# OVCAR-8 = test system: OVCAR-8
# SK-MEL-28 = test system: SK-MEL-28
# SK-MEL-5 = test system: SK-MEL-5
# SNB-19 = test system: SNB-19
# SNB-78 = test system: SNB-78
# SW-620 = test system: SW-620
# UACC-257 = test system: UACC-257
# RXF 393 = test system: RXF 393
Structure (SMILES),GI50 (CAKI-1),GI50 (DMS-114),GI50 (EKVX),GI50 (HCC 2998),GI50 (K562),GI50 (KM-20L2),GI50 (LXFL 529),GI50 (MCF7),GI50 (MDA-MB-231),GI50 (MDA-N),GI50 (NCI-H460),GI50 (NCI/ADR-RES),GI50 (OVCAR-8),GI50 (SK-MEL-28),GI50 (SK-MEL-5),GI50 (SNB-19),GI50 (SNB-78),GI50 (SW-620),GI50 (UACC-257),GI50 (RXF 393)
CN1CCN(CCn2c3c4ccccc4ccc3c3oc(=O)c4ccccc4c32)CC1,4.97 µM (inactive),1.95 µM (inactive),12.7 µM (inactive),1.87 µM (inactive),1.44 µM (inactive),2.58 µM (inactive),4.06 µM (inactive),1.55 µM (inactive),1.8 µM (inactive),1.56 µM (inactive),1.99 µM (inactive),6.87 µM (inactive),1.52 µM (inactive),4.94 µM (inactive),1.78 µM (inactive),4.51 µM (inactive),11.4 µM (inactive),1.86 µM (inactive),1.56 µM (inactive),
NNC(=O)N/N=C1\CNC(=O)C(=O)C1c1nc2ccccc2s1 (stereo not given),> 100 µM (inactive),> 100 µM (inactive),> 100 µM (inactive),> 100 µM (inactive),> 100 µM (inactive),> 100 µM (inactive),> 100 µM (inactive),,,,> 100 µM (inactive),,> 100 µM (inactive),> 100 µM (inactive),> 100 µM (inactive),> 100 µM (inactive),> 100 µM (inactive),> 100 µM (inactive),> 100 µM (inactive),> 100 µM (inactive)
Cc1c(C(=O)C/C(=N/NC(=O)C[n+]2ccccc2)C(=O)Nc2ccccc2)[n+]([O-])c2ccccc2[n+]1[O-],> 100 µM (inactive),> 100 µM (inactive),> 100 µM (inactive),> 100 µM (inactive),> 100 µM (inactive),> 100 µM (inactive),> 100 µM (inactive),,,,> 100 µM (inactive),,> 100 µM (inactive),> 100 µM (inactive),> 100 µM (inactive),> 100 µM (inactive),> 100 µM (inactive),> 100 µM (inactive),> 100 µM (inactive),> 100 µM (inactive)
CCC(CO)COC(=O)/C=C/C(=O)OCC(CC)CO (stereo not given),> 100 µM (inactive),> 100 µM (inactive),> 55.5 µM (inactive),> 100 µM (inactive),48.6 µM (inactive),> 100 µM (inactive),78.7 µM (inactive),,,,> 100 µM (inactive),,> 76.2 µM (inactive),> 100 µM (inactive),> 100 µM (inactive),> 100 µM (inactive),> 100 µM (inactive),> 89.1 µM (inactive),> 100 µM (inactive),> 65.3 µM (inactive)
N#Cc1ccc(Nc2cnc3ccc(N)cc3n2)cc1,> 100 µM (inactive),> 100 µM (inactive),> 100 µM (inactive),> 100 µM (inactive),> 100 µM (inactive),> 100 µM (inactive),> 100 µM (inactive),,,,> 100 µM (inactive),,> 100 µM (inactive),> 100 µM (inactive),> 100 µM (inactive),> 100 µM (inactive),> 100 µM (inactive),> 100 µM (inactive),> 100 µM (inactive),> 100 µM (inactive)
OC1CN(OC/C=C/c2ccccc2)CC(O)C1O (stereo not given),> 100 µM (inactive),> 100 µM (inactive),> 100 µM (inactive),> 100 µM (inactive),> 100 µM (inactive),> 100 µM (inactive),60.1 µM (inactive),,,,63.4 µM (inactive),,> 100 µM (inactive),> 100 µM (inactive),> 100 µM (inactive),> 100 µM (inactive),> 100 µM (inactive),36.1 µM (inactive),> 100 µM (inactive),> 100 µM (inactive)
COc1c(OC2OC(CO)C(O)C(O)C2O)cc2c(c1OC)-c1ccc(OC)c(=O)cc1C(NC(C)=O)CC2 (stereo not given),> 100 µM (inactive),35.7 µM (inactive),> 100 µM (inactive),> 100 µM (inactive),> 97.3 µM (inactive),> 100 µM (inactive),86.1 µM (inactive),,,,> 100 µM (inactive),,> 100 µM (inactive),61 µM (inactive),35.4 µM (inactive),> 100 µM (inactive),> 100 µM (inactive),> 100 µM (inactive),> 100 µM (inactive),> 83.6 µM (inactive)
C=C1C(=O)OC2C(C)C3C=CC(=O)[C@@]3(C)C(OC(=O)/C(C)=C/C)C1[C@@H]2OC(C)=O (stereo not given in full),0.553 µM (active),0.861 µM (active),0.551 µM (active),1.75 µM (inactive),0.374 µM (active),1.51 µM (inactive),0.359 µM (active),0.458 µM (active),0.259 µM (active),0.252 µM (active),0.3 µM (active),0.237 µM (active),0.24 µM (active),0.593 µM (active),1.46 µM (inactive),1.89 µM (inactive),0.396 µM (active),0.257 µM (active),0.641 µM (active),0.215 µM (active)
